Results taken from US9440966B2, “Compounds for treatment of metabolic syndrome” (SJT MOLECULAR RESEARCH, S.L., priority 2011, dated 2016).
Entries after “also recorded” stand apart in the source; their conditions may differ. Structures can show the parent of a compound that is named as a salt.

Assays:
[1] = tested on: Drosophila melanogaster (Oregon-R strain); test: Toxicology study: larva-to-adult viability and development time
Source text: The purpose of this study was to test and compare the potential toxic effects of compounds 5a, 6a and 7a on the larva-to-adult viability and development time in a Drosophila melanogaster (Oregon-R) flies. These studies have a relevant predictive role with the aim to anticipate possible adverse toxicological effects that may happen during preclinical studies with animal, preferably mammals. In addition, the data provided are highly quantitative.
Drosophila melanogaster (Oregon-R) flies were obtained by the University of the Balearic Islands (Spain). […] The larvae were seeded on standard food supplemented with the appropriate dose of compounds tested. Each compound was tested at 1, 10, 100, 1000 and 2000 μg/ml dissolved in standard food.
Fly adults were transferred from the serial transfer system to bottles with fresh food for 24 h. Adults 5 days old were placed on egg collecting devices (layers) containing a mixture of agar, water, acetic acid, and ethyl alcohol, with a drop of active yeast on it. Every 2 h., the layer glasses were changed, in this way, the eggs of a glass have similar age, with a maximum difference of 2 h. among them. The glasses of the layers were kept at 25° C. for at least 22 h. in Petri dishes until larvae hatched. Fifty larvae were picked with a lancet under a stereoscopic microscope and were seeded into 10×2 cm vials with 5 ml food. Vials were supplemented with 4a, 5a and 7a at 1, 10 and 100 μg/ml. As positive control we used cupric acetate (toxic) at 350 μg/ml.
The number of adult flies which emerged from each vial was counted daily until the exhaustion of the culture. The parameters studied were the larvae-to-adult viability (V) and development time.
Viability is expressed as V=NA/NL, where NL is the input number of larvae ([…] in our case) and NA the output number of adults emerging from these NL larvae. Development time was measured in days by the formula DT=ΣNidi/ΣNi where Ni is the number of flies emerging on the day di after the larvae were placed in the medium.
The data are expressed as the mean±SEM values from 3 independent experiments involving triplicate vials at the number of flies indicated.

[2] = tested on: normoglycemic rats; test: Oral glucose tolerance test in normoglycemic rats (Examples 36, 37); assay type: in vivo, Male Wistar rats; conditions: 10 mg/kg orally, single dose per day
Method: (§1) Male Wistar rats (200-300 g) were utilized provided by Mato Grosso do Sul's Federal University's Biotherium. Until the experiments were carried out, the animals have had free access to feed and water. The room temperature was kept at 22±2° C. with controlled humidity (60-80%) and the light/dark cycle was of 12 hours.
The glucose tolerance test was evaluated as described by Al-Awaki et al (6).
Rats were randomly divided into […] groups of four animals that were control group that received only a solution of saline, compound 23b group (10 mg/kg), compound 21a group (10 mg/kg) and metformin 300 mg/kg group. Respective treatments were made orally and daily for five days.
(§2) On day 1, 3, and 5, different groups of rats were fasted overnight (at least 12 h) prior to the test, but with given water ad libitum. The oral glucose tolerance test was carried out by administering of a glucose solution (2 g/kg body weight) according to Al-Awadi et al (6). Glycemia was determined in blood samples collected from the tail vein at −30 minutes (just before the administration of the oral extract) time 0 (prior to the glucose overload) and at 60 minutes after the glucose overload. Serum glucose concentrations were measured by the glucose oxidase method (7) using commercial kit (Accuchek-performa (Roche)) according to the manufacture's instructions.
as §1, with “hours. All procedures were submitted to the Animal Experimentation Ethics Committee.” for “hours.”
The compounds 21b, 23a and 23d were diluted firstly in 20 μl of ethanol and after in 980 μl de saline. Compounds 21e, 23e and 26b were dissolved in sterile saline and were administered by oral gavage to rats based in the weight, for example 200 g received 200 μL.
54 rats were randomly divided into […] groups of five-eight animals that were control group (n=8) that received only a solution of vehicle, compound 21b group (n=5) (10 mg/kg), compound 21e group (n=5) (10 mg/kg), compound 23e group (n=5) (10 mg/kg), compound 23a group (n=5) (10 mg/kg), compound 23d group (n=5) (10 mg/kg), compound 26b group (n=5) (10 mg/kg) and metformin (n=6) 300 mg/kg group. Respective treatments were made orally and daily for five days.
as §2, with “manufactures's” for “manufacture's”

[3] = tested on: normoglycemic rats; test: Oral glucose tolerance test in normoglycemic rats (Examples 27, 28); assay type: in vivo, Male Wistar rats; conditions: vs control group
Method: Male Wistar rats were utilized provided by Mato Grosso do Sul's Federal University's Biotherium. Until the experiments were carried out, the animals have had free access to feed and water. The room temperature was kept at 22±2° C. and the light/dark cycle was of 12 hours.
The glucose tolerance test is a reference method for the diagnosis of diabetes or glucose intolerance (5).
Distinct rat groups were orally treated, once a day, with 3-(carbohydrazyl-N′-phenylsubstituted)-1-benzosubstituted-β-carbolinic-3-carbohydrazide (compound 7a or ANIS-BZ) at doses: 0.5, 1 or 5 mg/kg or vehicle (control) for 3 days. Similarly, another rat group received metformin (reference drug used for lowering glucose serum levels) in a 300 mg/kg dose, orally, once a day for 3 days. The oral glucose tolerance test was carried out by administering of a glucose solution (2 g/kg body mass). Glycemia was determined at zero time (before oral administering) and at 60 minutes after the glucose overload.
Distinct groups of rats were treated orally, once a day, with N(-ethylamine)-1-benzosubstituted-β-carboline-3-carboxamide (compound 4a or ANIS-NH2) at doses: 0.5, 1 or 5 mg/kg, or vehicle for 3 days. Similarly, another group of rats received metformin in a 300 mg/kg dose orally for 3 days once a day. The oral glucose tolerance test was done under the administration of a glucose solution (2 g/kg body mass). Glycemia will be determined at the zero (before oral administration) time and 60 minutes after glucose overload.

[4] = tested on: female Swiss mice; test: Acute oral toxicology study in a mice model; assay type: in vivo; conditions: oral 2000 mg/kg single dose, observation for 14 days
Method: The experiments were conducted using female Swiss mice (20-30 g), housed under a 12-h light-dark cycle, with controlled humidity (60-80%), and temperature (22±1° C.). Food and water were freely available to the mice.
Female mice (n=6) were orally (2000 mg/kg) administered with a single dose of 4a, 5a, and 7a for the observation of acute signs of toxicity until 14 days. […] The observations comprised the behavior and manifestations of the toxic symptoms, and were carried out according to the Guidelines of the Organization for Economic Cooperation and Development (OECD, 2008).
All compounds were dissolved in sterile saline and were administered by oral gavage to mice based in the weight, for example 20 g received 20 μL.
The data are expressed as mean±S.E.M. of experiments. Statistical significance was determined through one-way analysis of variances (ANOVA), followed by either Newman-Keuls test. A p<0.05 was considered statistically significant. Graphs were drawn and statistical analysis was carried out using GraphPad Prism version 5.00 for Windows (GraphPad Software, San Diego, Calif., USA).

[5] = tested on: SHR hypertensive rats; test: Plasma cholesterol levels test in SHR hypertensive rats; assay type: in vivo, Male SHR; conditions: 25 days of treatment (15 mg/Kg) oral, effect more pronounced for 5a and 7a
Method: (§3) Distinct rat groups were orally treated, once a day, with 5 mg/kg of compounds 4a or 5a or 6a during the first 4 days, 10 mg/kg during the next 4 days and 15 mg/kg until the end of the treatment period or vehicle (control) for the same days. Similarly, another rat group received metformin (MET) (reference drug used for lowering glucose serum levels) in a 300 mg/kg dose, orally, from day 1 to the end of the treatment. Plasma cholesterol levels were measured in triplicate 12 hours after drug administration by the cholesterol oxidase/peroxidase method (BioSystems S.A, Barcelona, Spain). Blood samples were obtained by femoral vein punction. This method was chosen because of its noninvasive character, enabling daily measurements with the same rats throughout the entire treatment.
Male SHR were provided by Charles River Laboratories (USA). Until the experiments were carried out, the animals have had free access to feed and water. The room temperature was kept at 22±2° C. and the light/dark cycle was of 12 hours. All procedures were submitted to the Animal Experimentation Ethics Committee.
as §3, with “metformin” for “metformin (MET)”, “Blood pressure was” for “Plasma cholesterol levels were”, “4” for “12”, “administration in warmed warmed, restrained, conscious rats” for “administration”, “tail-cuff” for “cholesterol oxidase/peroxidase”, “with a computerized oscillometric system recorder (Nyprem, Cibertec).” for “(BioSystems S.A, Barcelona, Spain). Blood samples were obtained by femoral vein punction.”

[6] = fifth day, in relation to control group

CC(=O)[O-].CC(=O)[O-].[Cu+2] [Cupric acetate, cupric acetate, reference compound]
Larva-to-adult viability (% emerged adult flies) ([1]; 350 μg/ml, positive control (toxic)): 0%

Cl.NCCNC(=O)c1cc2c([nH]c3ccccc32)c(-c2ccc(Cl)cc2)n1 [Compound 21b, N-(2-aminoethyl)-1-(4-chlorophenyl)-9H-pyrido[3,4-b]indole-3-carboxamide]
glucose levels in oral glucose tolerance test [2, 6]: reduced the glucose levels

COc1ccc(-c2nc(C(=O)NCCO)cc3c2[nH]c2ccccc23)cc1.Cl [Compound 23d, N-(2-hydroxyethyl)-1-(4-methoxyphenyl)-9H-pyrido[3,4-b]indole-3-carboxamide hydrochloride]
glucose levels in oral glucose tolerance test [2, 6]: reduced the glucose levels

COc1ccc(-c2nc(C(=O)N/N=C/c3ccccc3)cc3c2[nH]c2ccccc23)cc1 [Compound 7a, 3-(carbohydrazyl-N′-phenylsubstitute)-1-benzosubstitute-β-carbolinic-3-carbohydrazide]
glycemic levels of animals that received an oral glucose overload ([3]; after 3 days, 0.5 mg/kg oral once a day): only the 1 and 5 mg/kg doses reduced statistically significant the glycemic levels | glycemic levels of animals that received an oral glucose overload ([3]; after 3 days, 1 mg/kg oral once a day): reduced statistically significant the glycemic levels | glycemic levels of animals that received an oral glucose overload ([3]; after 3 days, 5 mg/kg oral once a day, 5 mg/kg): reduces the glycemic levels; also recorded: reduced statistically significant the glycemic levels | glycemic levels of animals that received an oral glucose overload ([3]; first day, 5 mg/kg oral, 60 min after glucose 2 g/kg): reduces the glycemic levels | larvae-to-adult viability and development time ([1]; in vivo): not affected | mortality or behavioral disorders (acute signs of toxicity) [4]: did not produce mortality or any behavioral disorders | plasma cholesterol levels [5]: inhibition of plasma cholesterol levels

COc1ccc(-c2nc(C(=O)NCCCCN)cc3c2[nH]c2ccccc23)cc1.Cl [Compound 23e, N-(4-aminobutyl)-1-(4-methoxyphenyl)-9H-pyrido[3,4-b]indole-3-carboxamide hydrochloride]
glucose levels in oral glucose tolerance test [2, 6]: reduced the glucose levels | glucose levels in oral glucose tolerance test ([2]; first day): significant reduction in glucose levels | glucose levels in oral glucose tolerance test ([2]; third day): significant reduction in glucose levels

COc1ccc(-c2nc(C(=O)NCCN(C)C)cc3c2[nH]c2ccccc23)cc1 [Compound 23b, N-(2-dimethylaminoethyl)-1-(4-methoxyphenyl)-9H-pyrido[3,4-b]indole-3-carboxamide hydrochloride]
glucose levels in oral glucose tolerance test [2, 6]: reduced the glucose levels | glucose levels in oral glucose tolerance test ([2]; third day): significant reduction in glucose levels

COc1ccc(-c2nc(C(=O)N3CCOCC3)cc3c2[nH]c2ccccc23)cc1.Cl [Compound 23a, [1-(4-methoxyphenyl)-9H-pyrido[3,4-b]indol-3-yl]-4-morpholinyl-Methanone Hydrochloride]
glucose levels in oral glucose tolerance test ([2]; first day): significant reduction in glucose levels
